ChEMBL document CHEMBL5380821, “Discovery of a PDZ Domain Inhibitor Targeting the Syndecan/Syntenin Protein-Protein Interaction: A Semi-Automated "Hit Identification-to-Optimization" Approach” (J Med Chem, 2023)
Active and inactive are the calls of the source. No cut-off for these calls is given here.

Columns and labels:
Syntenin-1/Syndecan-2 = Syntenin-1/Syndecan-2 (Homo sapiens, UniProt O00560); experiment: Inhibition of full length N-terminal GST-tagged human syntenin-1 expressed in Escherichia coli ER2566/syndecan2 (unknown origin) interaction incubated for 16 hrs by HTRF assay
Syntenin-1/Syndecan-2, sequence (P34741 whole entry, one chain of several, further chain): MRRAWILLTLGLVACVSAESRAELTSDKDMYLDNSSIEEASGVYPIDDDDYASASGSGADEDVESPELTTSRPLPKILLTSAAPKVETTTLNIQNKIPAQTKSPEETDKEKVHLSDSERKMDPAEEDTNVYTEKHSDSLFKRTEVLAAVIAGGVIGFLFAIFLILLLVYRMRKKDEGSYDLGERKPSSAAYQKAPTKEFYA

[1] = target: T1, Syntenin-1/Syndecan-2 (Homo sapiens) (UniProt O00560+P34741); experiment: Inhibition of full length N-terminal GST-tagged human syntenin-1 expressed in Escherichia coli ER2566/syndecan2 (unknown origin) interaction at 200 uM incubated for 16 hrs by HTRF assay relative to control
[2] = target: GRASP55-JAMB (Homo sapiens) (UniProt Q9H8Y8+P57087); experiment: Inhibition of N-terminal GST-tagged GRASP55 (unknown origin) expressed in Escherichia coli BL21 (DE3) cells/JAM-B (unknown origin) complex incubated for 16 hrs by HTRF assay
GRASP55-JAMB (Homo sapiens), sequence (P57087 whole entry, looked up, other chains not shown): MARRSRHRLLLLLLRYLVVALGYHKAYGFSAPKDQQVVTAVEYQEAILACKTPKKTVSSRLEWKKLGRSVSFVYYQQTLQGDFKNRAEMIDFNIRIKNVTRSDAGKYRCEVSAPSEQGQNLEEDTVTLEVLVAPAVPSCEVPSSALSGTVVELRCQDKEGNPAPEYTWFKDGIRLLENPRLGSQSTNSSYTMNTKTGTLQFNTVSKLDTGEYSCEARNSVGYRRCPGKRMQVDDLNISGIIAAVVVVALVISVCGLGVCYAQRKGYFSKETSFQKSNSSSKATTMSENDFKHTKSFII

[3] = target: ERBIN-P0071 (Homo sapiens) (UniProt Q96RT1+Q99569); experiment: Inhibition of N-terminal GST-tagged Erbin (unknown origin) expressed in Escherichia coli BL21 (DE3) cells/P0071 (unknown origin) complex incubated for 16 hrs by HTRF assay
ERBIN-P0071 (Homo sapiens), sequence (Q96RT1 whole entry, looked up): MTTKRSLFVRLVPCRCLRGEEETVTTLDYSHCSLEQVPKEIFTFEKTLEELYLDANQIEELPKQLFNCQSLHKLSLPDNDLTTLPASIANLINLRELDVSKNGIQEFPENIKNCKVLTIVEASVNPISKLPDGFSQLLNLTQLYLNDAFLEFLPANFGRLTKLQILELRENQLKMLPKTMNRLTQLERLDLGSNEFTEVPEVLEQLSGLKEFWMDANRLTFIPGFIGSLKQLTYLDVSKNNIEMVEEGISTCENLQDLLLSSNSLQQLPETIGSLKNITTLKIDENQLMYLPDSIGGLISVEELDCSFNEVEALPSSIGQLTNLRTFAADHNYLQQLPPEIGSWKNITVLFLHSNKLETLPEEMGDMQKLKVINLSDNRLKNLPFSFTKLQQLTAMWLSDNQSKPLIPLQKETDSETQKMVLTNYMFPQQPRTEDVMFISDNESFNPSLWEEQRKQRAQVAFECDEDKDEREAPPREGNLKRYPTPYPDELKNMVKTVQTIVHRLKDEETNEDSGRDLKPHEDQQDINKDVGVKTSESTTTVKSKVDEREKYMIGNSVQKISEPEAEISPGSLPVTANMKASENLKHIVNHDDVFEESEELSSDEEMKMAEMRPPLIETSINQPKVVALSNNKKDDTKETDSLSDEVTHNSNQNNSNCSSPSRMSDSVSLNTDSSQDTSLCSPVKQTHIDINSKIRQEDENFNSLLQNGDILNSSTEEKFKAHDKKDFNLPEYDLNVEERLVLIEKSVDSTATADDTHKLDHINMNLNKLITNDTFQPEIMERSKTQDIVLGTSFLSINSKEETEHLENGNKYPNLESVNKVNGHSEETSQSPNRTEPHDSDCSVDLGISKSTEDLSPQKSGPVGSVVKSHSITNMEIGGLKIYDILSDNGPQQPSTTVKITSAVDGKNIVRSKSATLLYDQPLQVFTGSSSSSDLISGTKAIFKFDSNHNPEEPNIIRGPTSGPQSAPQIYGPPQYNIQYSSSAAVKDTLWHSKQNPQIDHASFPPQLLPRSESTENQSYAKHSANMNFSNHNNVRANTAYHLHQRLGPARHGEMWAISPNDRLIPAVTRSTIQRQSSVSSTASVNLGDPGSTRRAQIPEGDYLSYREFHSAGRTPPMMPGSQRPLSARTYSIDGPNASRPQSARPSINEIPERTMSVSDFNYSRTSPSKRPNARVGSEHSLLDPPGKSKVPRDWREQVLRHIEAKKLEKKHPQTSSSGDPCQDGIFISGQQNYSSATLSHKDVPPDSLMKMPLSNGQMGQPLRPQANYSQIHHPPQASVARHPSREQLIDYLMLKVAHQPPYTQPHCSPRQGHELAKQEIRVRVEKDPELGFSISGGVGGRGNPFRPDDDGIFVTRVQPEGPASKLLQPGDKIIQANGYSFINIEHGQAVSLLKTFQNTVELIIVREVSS
ERBIN-P0071 (Homo sapiens), sequence (Q99569 whole entry, looked up): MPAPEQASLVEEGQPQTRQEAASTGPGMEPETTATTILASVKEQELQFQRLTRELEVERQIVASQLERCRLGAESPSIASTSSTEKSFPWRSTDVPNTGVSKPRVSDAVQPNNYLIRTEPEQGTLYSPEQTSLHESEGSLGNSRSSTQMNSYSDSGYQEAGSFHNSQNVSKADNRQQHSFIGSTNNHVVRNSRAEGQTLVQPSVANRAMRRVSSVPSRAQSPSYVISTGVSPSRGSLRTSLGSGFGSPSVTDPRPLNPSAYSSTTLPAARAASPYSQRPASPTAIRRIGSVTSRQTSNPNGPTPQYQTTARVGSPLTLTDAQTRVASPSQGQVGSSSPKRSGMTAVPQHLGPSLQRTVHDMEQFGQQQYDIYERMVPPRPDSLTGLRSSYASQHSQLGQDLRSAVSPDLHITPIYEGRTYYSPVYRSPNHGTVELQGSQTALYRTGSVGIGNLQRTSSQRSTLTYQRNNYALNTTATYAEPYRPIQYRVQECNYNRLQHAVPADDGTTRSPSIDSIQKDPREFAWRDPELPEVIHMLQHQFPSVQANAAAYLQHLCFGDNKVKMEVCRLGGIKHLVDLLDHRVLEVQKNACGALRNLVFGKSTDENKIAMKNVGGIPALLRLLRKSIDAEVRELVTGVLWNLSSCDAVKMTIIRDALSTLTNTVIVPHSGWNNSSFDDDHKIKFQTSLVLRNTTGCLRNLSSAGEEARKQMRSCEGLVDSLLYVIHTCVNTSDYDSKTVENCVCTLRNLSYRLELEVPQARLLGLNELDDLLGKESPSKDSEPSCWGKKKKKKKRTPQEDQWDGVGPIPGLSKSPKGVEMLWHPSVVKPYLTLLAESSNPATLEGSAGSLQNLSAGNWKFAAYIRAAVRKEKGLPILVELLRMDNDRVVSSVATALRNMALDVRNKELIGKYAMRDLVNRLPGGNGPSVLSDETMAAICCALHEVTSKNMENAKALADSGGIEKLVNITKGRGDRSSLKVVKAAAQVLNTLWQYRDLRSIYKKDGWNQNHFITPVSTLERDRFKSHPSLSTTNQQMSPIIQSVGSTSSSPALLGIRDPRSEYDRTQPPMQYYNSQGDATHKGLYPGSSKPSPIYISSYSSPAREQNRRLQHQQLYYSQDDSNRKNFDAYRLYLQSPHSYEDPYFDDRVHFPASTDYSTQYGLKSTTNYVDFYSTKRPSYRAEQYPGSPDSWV

MDA-MB-231 [4] = experiment: Cytotoxicity against wild-type human MDA-MB-231 cells assessed as reduction in cell viability upto 100 uM measured after 48 hrs by Annexin V-FITC staining based flow cytometric analysis; format: functional
MDA-MB-231 [5] = experiment: Cytotoxicity against human MDA-MB-231 cells with syntenin CRISPR/Cas9 knockout assessed as reduction in cell viability upto 100 uM measured after 48 hrs by Annexin V-FITC staining based flow cytometric analysis; format: functional
MDA-MB-231 [6] = experiment: Inhibition of cell migration in wild-type human MDA-MB-231 cells assessed as decrease in migration speed at 100 uM incubated for 24 hrs by 2D phase contrast video microscopic analysis; format: functional, cell-based
MDA-MB-231 [7] = experiment: Inhibition of cell migration in wild-type human MDA-MB-231 cells assessed as decrease in euclidean distance at 100 uM incubated for 24 hrs by 2D phase contrast video microscopic analysis; format: functional, cell-based
MDA-MB-231 [8] = experiment: Inhibition of cell migration in human MDA-MB-231 cells with syntenin CRISPR/Cas9 knockout assessed as decrease in migration speed at 100 uM incubated for 24 hrs by 2D phase contrast video microscopic analysis; format: functional, cell-based
MDA-MB-231 [9] = experiment: Inhibition of cell migration in human MDA-MB-231 cells with syntenin CRISPR/Cas9 knockout assessed as decrease in euclidean distance at 100 uM incubated for 24 hrs by 2D phase contrast video microscopic analysis; format: functional, cell-based
[10] = target: T1, Syntenin-1/Syndecan-2 (Homo sapiens); experiment: Inhibition of full length N-terminal GST-tagged human syntenin-1 expressed in Escherichia coli ER2566/syndecan2 (unknown origin) interaction at 200 uM incubated for 16 hrs in the presence of NP-40 by HTRF assay
Syntenin-1 = target: T2, Syntenin-1 (Homo sapiens, UniProt O00560); experiment: Binding affinity to full length N-terminal GST-tagged human syntenin-1 expressed in Escherichia coli ER2566 assessed as dissociation constant by ITC analysis
T2 sequence (O00560 whole entry): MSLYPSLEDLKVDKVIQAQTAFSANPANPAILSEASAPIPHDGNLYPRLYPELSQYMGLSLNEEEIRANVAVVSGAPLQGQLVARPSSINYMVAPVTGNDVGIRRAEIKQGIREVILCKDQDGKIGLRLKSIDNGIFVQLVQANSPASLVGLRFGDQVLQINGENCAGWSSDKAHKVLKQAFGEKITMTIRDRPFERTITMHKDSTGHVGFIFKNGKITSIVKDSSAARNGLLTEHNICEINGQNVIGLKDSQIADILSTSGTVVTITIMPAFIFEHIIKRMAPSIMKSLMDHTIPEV

MDA-MB-231 [11] = experiment: Inhibition of cell migration in wild-type human MDA-MB-231 cells assessed as decrease in migration speed at 1 to 10 uM incubated for 24 hrs by 2D phase contrast video microscopic analysis; format: functional, cell-based; settings: dose 1-10 µM
MDA-MB-231 [12] = experiment: Inhibition of cell migration in wild-type human MDA-MB-231 cells assessed as decrease in euclidean distance at 1 to 10 uM incubated for 24 hrs by 2D phase contrast video microscopic analysis; format: functional, cell-based; settings: dose 1-10 µM

Row | IC50 (Syntenin-1/Syndecan-2) [µM] | Structure (SMILES) | also measured
1 | 44 | C[C@H](NC(=O)[C@H](Cc1ccc(O)cc1)N1Cc2ccccc2C1=O)C(=O)O | 
2 | > 500 | CC[C@H](C)[C@H](NC(=O)[C@H](C(C)C)N1Cc2ccccc2C1=O)C(=O)O | 
3 | 9.9 | C[C@H](NC(=O)[C@H](Cc1ccc(-c2ccccc2F)cc1)N1Cc2ccccc2C1=O)C(=O)O | 
4 | 180 | C[C@H](NC(=O)[C@H](Cc1ccc(C#N)cc1)N1Cc2ccccc2C1=O)C(=O)O | 
5 | > 500 | CC(C)C[C@@H](C(=O)N[C@@H](Cc1ccccc1)C(=O)O)N1Cc2ccccc2C1=O | 
6 | 76 | CC(C)[C@@H](C(=O)N[C@@H](C)C(=O)O)N1Cc2ccccc2C1=O | inhibition [2]: inactive; inhibition [3]: inactive; Activity (MDA-MB-231 [4]): inactive; Activity (MDA-MB-231 [5]): inactive; inhibition (MDA-MB-231 [6]): Active; inhibition (MDA-MB-231 [7]): Active; inhibition (MDA-MB-231 [8]): inactive; inhibition (MDA-MB-231 [9]): inactive; inhibition [1]: > 60%; inhibition [10]: Active
7 | 13 | C[C@H](NC(=O)[C@H](Cc1ccc2ccccc2c1)N1Cc2ccccc2C1=O)C(=O)O | 
8 | 14 | CC(C)[C@@H](C(=O)N[C@@H](C)C(=O)O)N1Cc2cc(Cl)ccc2C1=O | 
9 | > 500 | CC(C)C[C@H](NC(=O)[C@H](Cc1ccccc1)N1Cc2ccccc2C1=O)C(=O)O | 
10 | 0.82 | CC(=O)Nc1ccc(-c2ccc(C[C@@H](C(=O)N[C@@H](C)C(=O)O)N3Cc4cc(Br)ccc4C3=O)cc2)cc1 | 
11 | 4 | C[C@H](NC(=O)[C@H](Cc1ccc(-c2ccc3occc(=O)c3c2)cc1)N1Cc2ccccc2C1=O)C(=O)O | 
12 | > 500 | CC(C)C[C@H](NC(=O)[C@H](CC(C)C)N1Cc2ccccc2C1=O)C(=O)O | 
13 | 67 | C[C@H](NC(=O)[C@H](Cc1ccccc1)N1Cc2ccccc2C1=O)C(=O)O | 
14 | 7.7 | CC(=O)Nc1ccc(-c2ccc(C[C@@H](C(=O)N[C@@H](C)C(=O)O)N3Cc4ccccc4C3=O)cc2)cc1 | 
15 | 4.2 | CC(=O)c1ccc(F)c(-c2ccc(C[C@@H](C(=O)N[C@@H](C)C(=O)O)N3Cc4ccccc4C3=O)cc2)c1 | 
16 | > 500 | CC(C)[C@H](NC(=O)[C@H](Cc1ccccc1)N1Cc2ccccc2C1=O)C(=O)O | inhibition (MDA-MB-231 [6]): Active; inhibition (MDA-MB-231 [7]): Active
17 | 128 | COc1ccc(C[C@@H](C(=O)N[C@@H](C)C(=O)O)N2Cc3ccccc3C2=O)cc1 | 
18 | 5.2 | C[C@H](NC(=O)[C@H](Cc1ccc2ccccc2c1)N1Cc2cc(Br)ccc2C1=O)C(=O)O | 
19 | > 200 | Cc1ccc(C[C@@H](C(=O)N[C@@H](C)C(=O)O)N2Cc3ccccc3C2=O)cc1 | 

Continued, compound first:

Row | Structure (SMILES) | IC50 (Syntenin-1/Syndecan-2) [µM] | also measured
20 | C[C@H](NC(=O)C(CSCc1ccccc1)N1Cc2ccccc2C1=O)C(=O)O (single isomer, unassigned) | 63 | 
21 | CC[C@H](C)[C@H](NC(=O)[C@H](CC(C)C)N1Cc2ccccc2C1=O)C(=O)O | > 500 | 
22 | O=C(O)[C@H](Cc1ccccc1)NC(=O)[C@H](Cc1ccccc1)N1Cc2ccccc2C1=O | > 500 | 
23 | CC(C)C[C@@H](C(=O)N[C@@H](C)C(=O)O)N1Cc2ccccc2C1=O | 213 | 
24 | CCOc1nc2ccccc2nc1N1CCCC(C(=O)N2CCc3ccccc3C2)C1 (centres undefined) |  | inhibition [1]: > 60%
25 | C[C@H](NC(=O)[C@H](Cc1ccc(Br)cc1)N1Cc2ccccc2C1=O)C(=O)O | 35 | 
26 | C[C@H](NC(=O)[C@H](Cc1ccc(-c2cc(CO)ccc2F)cc1)N1Cc2ccccc2C1=O)C(=O)O | 5.3 | 
27 | CCOC(=O)C(Cc1c[nH]c2ccccc12)NC(=O)C(Cc1ccccc1)N1C(=O)c2ccccc2C1=O (centres undefined) |  | inhibition [1]: > 60%
28 | CC(C)[C@@H](C(=O)N[C@@H](C)C(=O)O)N1Cc2cc(Br)ccc2C1=O | 20 | 
29 | COc1cc2cc(C(=O)N(C)CCOc3cccc(Cl)c3)[nH]c2c(OC)c1OC |  | inhibition [1]: > 60%
30 | CC(Oc1ccc(-c2cc(N)nc3[nH]ccc23)cc1Cl)C(=O)O (centres undefined) |  | inhibition [1]: > 60%
31 | CC(C)[C@@H](C(=O)N[C@@H](C)C(=O)O)N1Cc2ccc(Br)cc2C1=O | > 200 | 
32 | CC(C)[C@@H](C(=O)N[C@@H](C)C(=O)O)N1Cc2c(Cl)cccc2C1=O | > 200 | 
33 | CCOc1ccc2[nH]c(=O)c(CN(C3CCCCC3)C(CC)c3nnnn3C(C)(C)C)cc2c1 (centres undefined) |  | inhibition [1]: > 60%
34 | C[C@H](NC(=O)[C@H](Cc1ccccc1)NC(=O)c1cc2cc(Cl)ccc2n1C)C(=O)O |  | inhibition [1]: > 60%
35 | CC(C)[C@@H](C(=O)N[C@@H](Cc1ccccc1)C(=O)O)N1Cc2ccccc2C1=O | > 500 | 
36 | COc1ccccc1NC(=O)N1CCCC(c2nc(O)c3nnn(Cc4ccc(C)cc4)c3n2)C1 (centres undefined) |  | inhibition [1]: > 60%
37 | C[C@H](NC(=O)[C@H](Cc1ccc(-c2ccc3c(c2)C(=O)N(C)C3)cc1)N1Cc2ccccc2C1=O)C(=O)O | 6.3 | 
38 | COc1ccc(F)c(-c2ccc(C[C@@H](C(=O)N[C@@H](C)C(=O)O)N3Cc4ccccc4C3=O)cc2)c1 | 10 | 
39 | CC(C)C[C@@H](C(=O)N[C@H](C(=O)O)C(C)C)N1Cc2ccccc2C1=O | > 500 | 
40 | C[C@H](NC(=O)[C@H](Cc1c[nH]c2ccccc12)N1Cc2ccccc2C1=O)C(=O)O | 33 | 
41 | C[C@H](NC(=O)[C@H](Cc1ccc(-c2cc(CO)ccc2F)cc1)N1Cc2cc(Br)ccc2C1=O)C(=O)O | 1.5 | 
42 | CC[C@H](C)[C@H](NC(=O)[C@H](Cc1ccccc1)N1Cc2ccccc2C1=O)C(=O)O | > 500 | 
43 | CC(=O)c1ccc(F)c(-c2ccc(C[C@@H](C(=O)N[C@@H](C)C(=O)O)N3Cc4cc(Br)ccc4C3=O)cc2)c1 | 0.4 | inhibition [2]: inactive; inhibition [3]: inactive; Kd (Syntenin-1): 1.8 µM; Activity (MDA-MB-231 [4]): inactive; Activity (MDA-MB-231 [5]): inactive; inhibition (MDA-MB-231 [6]): Active; inhibition (MDA-MB-231 [7]): Active; inhibition (MDA-MB-231 [8]): inactive; inhibition (MDA-MB-231 [9]): inactive; inhibition (MDA-MB-231 [11]): Active; inhibition (MDA-MB-231 [12]): Active
44 | CC(C)C[C@H](NC(=O)[C@H](C(C)C)N1Cc2ccccc2C1=O)C(=O)O | > 500 | 
45 | CC(C)[C@H](NC(=O)[C@H](C(C)C)N1Cc2ccccc2C1=O)C(=O)O | > 500 | 
46 | C[C@H](NC(=O)[C@H](Cc1ccc(Cl)cc1)N1Cc2ccccc2C1=O)C(=O)O | 78 | 
